In series [1] the test system is Corynebacterium xerosis NCTC 9755. In words: in vitro minimum inhibitory concentration, Corynebacterium xerosis NCTC 9755. In kind it is cell-based. To be noted: NCTC9755; in vitro, Corynebacterium xerosis NCTC 9755; read-out: minimum inhibitory concentrations (MIC).
For series [2], the system named is Klebsiella pneumoniae ATCC 10031. In words: in vitro minimum inhibitory concentration, Klebsiella pneumoniae ATCC 10031. It is filed as cell-based. Conditions: ATCC10031; in vitro, Klebsiella pneumoniae ATCC 10031; read-out: minimum inhibitory concentrations (MIC).
Series [3] concerns Shigella flexneri II-1819/C. Kind of series: in vitro minimum inhibitory concentration, Shigella flexneri II-1819/C. In kind it is cell-based. Conditions: II1819/C, read-out: minimum inhibitory concentrations (MIC). The protocol: In order to examine the antibacterial action, some new compounds were tested in vitro on a series of gram-positive and gram-negative micro-organisms. The results are shown in Table 1 as minimum inhibitory concentrations (MIC) in mcg/ml in comparision with erythromycin A erythromycin A oxime.

For series [4], the system named is Staphylococcus aureus ATCC 6538-P. In words: in vitro minimum inhibitory concentration, Staphylococcus aureus ATCC 6538-P. It is filed as cell-based. To be noted: ATCC6538; in vitro, Staphylococcus aureus ATCC 6538-P; read-out: minimum inhibitory concentrations (MIC).
Series [5] has the same test system. In words: stability in acid medium: MIC after exposure to 1 N HCl. To be noted: for MIC: ATCC6538, pH 1.2, Staphylococcus aureus ATCC 6538-P. It is filed as cell-based.
For series [6], the system named is Escherichia coli ATCC 10536. In words: in vitro minimum inhibitory concentration, Escherichia coli ATCC 10536. It is filed as cell-based. To be noted: ATCC10536, read-out: minimum inhibitory concentrations (MIC).
A short description of series [7]: acute i.v. toxicity in albino mice (Litchfield-Wilcoxon). To be noted: mouse, in vivo, iv; acute i.v., albino mice.
For another series, the system named is albino mice. The description is as above. To be noted: mouse, in vivo, iv.
Series [8] has as its system Streptococcus faecalis ATCC 8043. In words: in vitro minimum inhibitory concentration, Streptococcus faecalis ATCC 8043. It is filed as cell-based. To be noted: Enterococcus faecalis, ATCC8043; in vitro, Streptococcus faecalis ATCC 8043; read-out: minimum inhibitory concentrations (MIC).
Series [9] concerns Bacillus subtilis ATCC 6633. Kind of series: in vitro minimum inhibitory concentration, Bacillus subtilis ATCC 6633. It is filed as cell-based. Conditions: ATCC6633; in vitro, Bacillus subtilis ATCC 6633; read-out: minimum inhibitory concentrations (MIC).
For series [10], the system named is Bacillus cereus var. mycoides ATCC 11778. In words: microbe, parasite or virus in culture. To be noted: ATCC11778, read-out: minimum inhibitory concentrations (MIC). In kind it is cell-based.
The test system of series [11] is Brucella bronchiseptica ATCC 4617. In words: microbe, parasite or virus in culture. It is filed as cell-based. Conditions: Bordetella bronchiseptica, ATCC4617, read-out: minimum inhibitory concentrations (MIC).
Series [12] concerns Pseudomonas aeruginosa NCTC 10490. In words: in vitro minimum inhibitory concentration, Pseudomonas aeruginosa NCTC 10490. It is filed as cell-based. To be noted: NCTC10490; in vitro, Pseudomonas aeruginosa NCTC 10490; read-out: minimum inhibitory concentrations (MIC).
For series [13], the system named is Micrococcus flavus ATCC 10240. Kind of series: in vitro minimum inhibitory concentration, Micrococcus flavus ATCC 10240. Conditions: ATCC10240; in vitro, Micrococcus flavus ATCC 10240; read-out: minimum inhibitory concentrations (MIC). In kind it is cell-based.
The test system of the next series is Salmonella panama. In words: in vitro minimum inhibitory concentration, Salmonella panama. Conditions: Salmonella enterica; in vitro, Salmonella panama; read-out: minimum inhibitory concentrations (MIC). It is filed as cell-based.
In a further series the test system is Sarcina lutea ATCC 9341. Kind of series: in vitro minimum inhibitory concentration, Sarcina lutea ATCC 9341. It is filed as cell-based. Conditions: Micrococcus luteus, ATCC9341, read-out: minimum inhibitory concentrations (MIC).
For series [14], the system named is Staphylococcus epidermidis ATCC 12228. In words: in vitro minimum inhibitory concentration, Staphylococcus epidermidis ATCC 12228. In kind it is cell-based. To be noted: ATCC12228; in vitro, Staphylococcus epidermidis ATCC 12228; read-out: minimum inhibitory concentrations (MIC).
The mark [15] stands for this setting: 1 N HCl, pH 1.2, 30 minutes to 6 hours.

Converted amounts (≈) assume the structure as drawn.

Experimental findings from patent publication US4328334A, “11-Aza-10-deoxo-10-dihydroerythromycin A and derivatives thereof as well as a process for their preparation” (PLIVA Pharmaceutical and Chemical Works, priority 1979, dated 1982) are described below.

As for `CC[C@H]1OC(=O)[C@H](C)[C@@H](O[C@H]2C[C@@](C)(OC)[C@@H](O)[C@H](C)O2)[C@H](C)[C@@H](O[C@@H]2O[C@H](C)C[C@H](N(C)C)[C@H]2O)[C@](C)(O)C[C@@H](C)CN[C@H](C)[C@@H](O)[C@]1(C)O` [Compound I, 11-aza-4-0-cladinosyl-6-0-desosaminyl-15-ethyl-7,13,14-trihydroxy-3,5,7,9,12,14-hexamethyloxacyclopentadecane-2-one], the MIC is 1 µg/mL (≈ 1.36 µM) in series [1]; 10 µg/mL (≈ 13.6 µM) in series [2]; 10 µg/mL (≈ 13.6 µM) in series [3]; 0.5 µg/mL (≈ 0.68 µM) in series [4]; 0.5 µg/mL (≈ 0.68 µM) in [5] (exposure time 0 hours); 0.5 µg/mL (≈ 0.68 µM) in series [5] (exposure time 1/2 hour, 1 N HCl). Further, the MIC in series [5] (exposure time 1 hour, 1 N HCl) came out at 0.5 µg/mL (≈ 0.68 µM); in [5] (exposure time 2 hours, 1 N HCl), 1 µg/mL (≈ 1.36 µM); in series [5] (exposure time 3 hours, 1 N HCl), 1 µg/mL (≈ 1.36 µM); in series [5] (exposure time 6 hours, 1 N HCl), 1 µg/mL (≈ 1.36 µM); in series [6], 10 µg/mL (≈ 13.6 µM); in series [8], 0.5 µg/mL (≈ 0.68 µM). For the same compound, the MIC in [9] is 5 µg/mL (≈ 6.8 µM); in series [10], 0.5 µg/mL (≈ 0.68 µM); in [11] it was 1 µg/mL (≈ 1.36 µM); in series [12], 50 µg/mL (≈ 68 µM); in [13], 0.05 µg/mL (≈ 0.068 µM); in the series with Salmonella panama it was 50 µg/mL (≈ 68 µM). For the same compound, the MIC with Sarcina lutea ATCC 9341 came to 0.05 µg/mL (≈ 0.068 µM); in [14], 0.5 µg/mL (≈ 0.68 µM). Also, the “stability in acid medium compared with erythromycin A” value in [5] (setting [15]) was “significantly more stable than erythromycin A”. Also, in series [5] (setting [15]), the “stability in acid medium compared with erythromycin A oxime” value is “within the range of that of the starting antibioticum erythromycin A oxime”. Also, the median lethal dose (LD50) in [7] was found to be 110 mg/kg. Further, the “acute i.v. toxicity compared with erythromycin A oxime” value in the series on albino mice is “less toxic that the starting erythromycin A oxime”.

One may read the LD50 as the dose expected to kill half of the subjects tested. Higher therefore signals a less toxic substance.
